Measured values published in PubChem BioAssay AID248 (DTP/NCI, 2004).
“And” between values parts separate entries of the source, which are not always exact repeats. Equal entries are not always repeated. Toxic doses and inconclusive results are not listed. Rule as the data show it: active = T/C of 150% or more; inactive = T/C below 125%.

Tested on: L1210 leukemia ip in BDF1 mice, survival T/C
Assay: NCI In Vivo Anticancer Drug Screen. Data for tumor model L1210 Leukemia (intraperitoneal) in B6D2F1 (BDF1) mice
Settings: endpoint: mean survival time, higher = longer survival
In short: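 Transplanted-tumor mice were given test agent; controls received vehicle only. Survival readings from the two groups were divided (treated over control).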

[1] = dose: 100.0 mg/kg/injection, schedule: Q01DX009 (ip), vehicle: saline with Tween-80
[2] = dose: 100.0 mg/kg/injection, schedule: Q04DX003 (ip), vehicle: saline with Tween-80
[3] = dose: 200.0 mg/kg/injection, schedule: Q01DX009 (ip), vehicle: saline with Tween-80
[4] = dose: 200.0 mg/kg/injection, schedule: Q04DX003 (ip), vehicle: saline with Tween-80
[5] = dose: 100.0 mg/kg/injection, schedule: Q01DX009 (ip), vehicle: Klucel (hydroxypropylcellulose) (HPC)
[6] = dose: 200.0 mg/kg/injection, schedule: Q01DX009 (ip), vehicle: Klucel (hydroxypropylcellulose) (HPC)
[7] = dose: 400.0 mg/kg/injection, schedule: Q01DX009 (ip), vehicle: Klucel (hydroxypropylcellulose) (HPC)
[8] = dose: 100.0 mg/kg/injection, schedule: Q04DX003 (ip), vehicle: Klucel (hydroxypropylcellulose) (HPC)
[9] = dose: 200.0 mg/kg/injection, schedule: Q04DX003 (ip), vehicle: Klucel (hydroxypropylcellulose) (HPC)

Measured: T/C

O=Nc1c(S(=O)(=O)O)cc2cc(S(=O)(=O)O)cc(O)c2c1O.[Cu+2]
inactive: dose: 0.16 mg/kg/injection, schedule: Q01DX009 (ip), vehicle: saline 95 % of control | dose: 0.31 mg/kg/injection, schedule: Q01DX009 (ip), vehicle: saline 103 % of control | dose: 0.63 mg/kg/injection, schedule: Q01DX009 (ip), vehicle: saline 92 % of control | dose: 1.25 mg/kg/injection, schedule: Q04DX003 (ip), vehicle: saline 102 % of control | dose: 2.5 mg/kg/injection, schedule: Q04DX003 (ip), vehicle: saline 102 % of control | dose: 5.0 mg/kg/injection, schedule: Q04DX003 (ip), vehicle: saline 94 % of control

Nc1ccc2c(c1)C(=O)c1c(F)ccc(F)c1-2
inactive: dose: 50.0 mg/kg/injection, schedule: Q01DX001 (ip), vehicle: carboxymethylcellulose (CMC) 98 % of control | dose: 100.0 mg/kg/injection, schedule: Q01DX001 (ip), vehicle: carboxymethylcellulose (CMC) 96 % of control | dose: 200.0 mg/kg/injection, schedule: Q01DX001 (ip), vehicle: carboxymethylcellulose (CMC) 104 % of control | dose: 400.0 mg/kg/injection, schedule: Q01DX001 (ip), vehicle: carboxymethylcellulose (CMC) 115 % of control

O=C(Nc1ccccc1[N+](=O)[O-])Oc1ccc(-c2ccccc2)cc1
inactive: [1] 93 % of control and 105 % of control | dose: 100.0 mg/kg/injection, schedule: Q04DX002 (ip), vehicle: saline with Tween-80 103 % of control and 117 % of control | [2] 98 % of control | [3] 101 % of control and 92 % of control | dose: 200.0 mg/kg/injection, schedule: Q04DX002 (ip), vehicle: saline with Tween-80 107 % of control and 91 % of control | [4] 95 % of control | dose: 400.0 mg/kg/injection, schedule: Q01DX009 (ip), vehicle: saline with Tween-80 101 % of control and 103 % of control | dose: 400.0 mg/kg/injection, schedule: Q04DX002 (ip), vehicle: saline with Tween-80 101 % of control and 91 % of control | dose: 400.0 mg/kg/injection, schedule: Q04DX003 (ip), vehicle: saline with Tween-80 101 % of control

O=C(C=C(C(F)(F)F)C(F)(F)F)/C=C/c1ccccc1
inactive: dose: 1.0 mg/kg/injection, schedule: Q01DX009 (ip), vehicle: other 97 % of control | dose: 2.0 mg/kg/injection, schedule: Q01DX009 (ip), vehicle: other 109 % of control | dose: 2.5 mg/kg/injection, schedule: Q04DX003 (ip), vehicle: other 97 % of control | dose: 3.13 mg/kg/injection, schedule: Q01DX009 (ip), vehicle: other 102 % of control | dose: 4.0 mg/kg/injection, schedule: Q01DX009 (ip), vehicle: other 97 % of control | dose: 5.0 mg/kg/injection, schedule: Q04DX003 (ip), vehicle: other 97 % of control | dose: 10.0 mg/kg/injection, schedule: Q04DX003 (ip), vehicle: other 92 % of control | dose: 12.5 mg/kg/injection, schedule: Q04DX003 (ip), vehicle: other 88 % of control

CN(Cc1ccccc1Cl)C(=O)Nc1cccc(Cl)c1
inactive: [5] 97 % of control | [6] 103 % of control | [7] 114 % of control

N#CC1CNC(=S)N=C1c1ccccc1 (stereo not drawn)
inactive: [8] 100 % of control | [9] 95 % of control

O=S(=O)(Cc1ccc(Cl)cc1)c1ccccc1-n1cccc1
inactive: [8] 90 % of control | [9] 92 % of control | dose: 400.0 mg/kg/injection, schedule: Q04DX003 (ip), vehicle: Klucel (hydroxypropylcellulose) (HPC) 100 % of control

OC1(c2cccc3ccccc23)CCCCC1
inactive: dose: 50.0 mg/kg/injection, schedule: Q01DX009 (ip), vehicle: saline with Tween-80 100 % of control | [1] 94 % of control | [2] 94 % of control | [3] 103 % of control | [4] 91 % of control

CC1=CC(=O)C=CC1(C)C
inactive: dose: 100.0 mg/kg/injection, schedule: Q01DX001 (ip), vehicle: Klucel (hydroxypropylcellulose) (HPC) 100 % of control | [5] 94 % of control | dose: 200.0 mg/kg/injection, schedule: Q01DX001 (ip), vehicle: Klucel (hydroxypropylcellulose) (HPC) 100 % of control | [6] 94 % of control | dose: 400.0 mg/kg/injection, schedule: Q01DX001 (ip), vehicle: Klucel (hydroxypropylcellulose) (HPC) 108 % of control

CC1=C(Cl)C(=N\S(=O)(=O)c2ccccc2)/c2ccccc2/C1=N/S(=O)(=O)c1ccccc1
inactive: dose: 100.0 mg/kg/injection, schedule: Q01DX001 (ip), vehicle: saline sonified 101 % of control | dose: 200.0 mg/kg/injection, schedule: Q01DX001 (ip), vehicle: saline sonified 100 % of control | dose: 400.0 mg/kg/injection, schedule: Q01DX001 (ip), vehicle: saline sonified 102 % of control

CC1(C)OCC(C2OC(C)(C)OC2C2COC(C)(C)O2)O1 (stereo not drawn)
inactive: dose: 87.5 mg/kg/injection, schedule: Q04DX002 (ip), vehicle: saline 100 % of control | dose: 175.0 mg/kg/injection, schedule: Q04DX002 (ip), vehicle: saline 97 % of control | dose: 350.0 mg/kg/injection, schedule: Q04DX002 (ip), vehicle: saline 93 % of control

C1CC2CC1C1CNCC21 (stereo not drawn)
inactive: dose: 5.0 mg/kg/injection, schedule: Q01DX001 (ip), vehicle: saline 105 % of control | dose: 10.0 mg/kg/injection, schedule: Q01DX001 (ip), vehicle: saline 97 % of control | dose: 20.0 mg/kg/injection, schedule: Q01DX001 (ip), vehicle: saline 105 % of control | dose: 40.0 mg/kg/injection, schedule: Q01DX001 (ip), vehicle: saline 100 % of control | dose: 50.0 mg/kg/injection, schedule: Q04DX002 (ip), vehicle: Klucel (hydroxypropylcellulose) (HPC) 97 % of control | dose: 80.0 mg/kg/injection, schedule: Q01DX001 (ip), vehicle: saline 91 % of control | dose: 100.0 mg/kg/injection, schedule: Q04DX002 (ip), vehicle: Klucel (hydroxypropylcellulose) (HPC) 97 % of control

Cc1ccc2c(C)nc(N=C(N)N)nc2c1
inactive: dose: 18.8 mg/kg/injection, schedule: Q04DX003 (ip), vehicle: saline 96 % of control | dose: 37.5 mg/kg/injection, schedule: Q04DX003 (ip), vehicle: saline 100 % of control | dose: 75.0 mg/kg/injection, schedule: Q01DX001 (ip), vehicle: saline 103 % of control | dose: 75.0 mg/kg/injection, schedule: Q04DX003 (ip), vehicle: saline 97 % of control

CCCCCCCCN(C)N=Nc1ccccc1C(=O)O
inactive: dose: 12.5 mg/kg/injection, schedule: Q01DX009 (ip), vehicle: Klucel (hydroxypropylcellulose) (HPC) 109 % of control | dose: 12.5 mg/kg/injection, schedule: Q04DX003 (ip), vehicle: Klucel (hydroxypropylcellulose) (HPC) 102 % of control | dose: 25.0 mg/kg/injection, schedule: Q01DX009 (ip), vehicle: Klucel (hydroxypropylcellulose) (HPC) 106 % of control and 116 % of control | dose: 25.0 mg/kg/injection, schedule: Q04DX003 (ip), vehicle: Klucel (hydroxypropylcellulose) (HPC) 95 % of control | dose: 50.0 mg/kg/injection, schedule: Q01DX009 (ip), vehicle: Klucel (hydroxypropylcellulose) (HPC) 122 % of control | dose: 50.0 mg/kg/injection, schedule: Q04DX003 (ip), vehicle: Klucel (hydroxypropylcellulose) (HPC) 108 % of control | dose: 60.0 mg/kg/injection, schedule: Q01DX009 (ip), vehicle: Klucel (hydroxypropylcellulose) (HPC) 122 % of control | [8] 114 % of control | [6] 114 % of control | [7] 92 % of control

FC(F)(F)c1ccc2c(c1)N(CCCNCCN1CCOCC1)c1ccccc1S2
inactive: dose: 3.12 mg/kg/injection, schedule: Q01DX009 (ip), vehicle: saline 117 % of control | dose: 6.25 mg/kg/injection, schedule: Q01DX009 (ip), vehicle: saline 101 % of control | dose: 12.5 mg/kg/injection, schedule: Q01DX009 (ip), vehicle: saline 101 % of control | dose: 25.0 mg/kg/injection, schedule: Q01DX009 (ip), vehicle: saline 90 % of control | dose: 25.0 mg/kg/injection, schedule: Q04DX003 (ip), vehicle: saline 102 % of control | dose: 50.0 mg/kg/injection, schedule: Q04DX003 (ip), vehicle: saline 123 % of control
